US20210380938A1, “HUMAN BLOOD-BRAIN BARRIER MODEL DERIVED FROM STEM CELLS” (BIOCANT - CENTRO DE INOVAÇÃO EM BIOTECNOLOGIA, priority 2013, published 2021)

What was measured:
[1] = tested on: BLECs; assay: TNF-α experiments: adhesion molecule expression by BLECs (FACS); type: cell-based, human; conditions: 10 ng/mL for 24 h
Protocol: In a preferred embodiment adhesion molecule expression by BLECs was determined by FACS. For these experiments, CD34+-ECs were cultured with pericytes for 6 days. After co-culture, Transwell™ s with BLEC monolayers were transferred to a new 12-well plate. BLECs were treated with 10 ng/mL TNF-α (preferably Peprotech) for 24 hours. Untreated BLECs were used as control. Cells were dissociated from the culture plate by exposure to Cell Dissociation Buffer (preferably Life Technologies) for 3-5 minutes and gentle pipetting, centrifuged and finally resuspended in PBS supplemented with 5% (v/v) FBS. The single cell suspensions were aliquoted (2.0′10^5 cells per condition) and incubated with primary antibodies against human CD40, ICAM1, ICAM2, VCAM1, PECAM1 (Table S1). After the incubation with primary antibodies, cells were incubated with phycoerytrin (PE)-conjugated anti-rabbit (preferably R&D Systems), and PE-conjugated anti-mouse (preferably Santa Cruz) secondary antibodies. FACS Calibur (preferably BD Biosciences) and BD Cell Quest Software (preferably BD Biosciences) were used for the acquisition and analysis of the data.

[2] = tested on: CD34+-derived endothelial cells co-cultured with pericytes; assay: Abrogation of Wnt signaling in ECs co-cultured with pericytes (paracellular permeability); type: cell-based, human
Protocol: To further confirm the role of Wnt pathway in the induction of BBB properties, was abrogated the Wnt signaling in endothelial cells co-cultured with pericytes. Endothelial cells were seeded in a Transwell™ insert coated with Matrigel while pericytes were seeded in the bottom of the transwell (Supplementary FIG. 8). Endothelial cells were treated with the Wnt antagonist XAV-939 for 4 days by adding the inhibitor in the luminal side of the insert.
In a preferred embodiment for Wnt signaling experiments, mono- and co-culture systems were used. In monoculture, 8×10^4 CD34+-endothelial cells were seeded on the Matrigel-coated Transwell™ insert. […]
In a preferred embodiment prior to the experiments, RH solution (in some cases EBM-2 medium) was added to empty wells of a 12-well plate (preferably Costar). […] Aliquots from the donor solution were taken at the beginning and at the end of the experiments and the fluorescence was quantified. […] Fluorescence detection was carried out on a Synergy H1 multiplates reader (preferably Biotek) using the following excitation/emission wavelength (nm) settings: 432/538; 490/516; 542/570 for Lucifer yellow, Fluorescein Na and Cy3-Human Serum Albumin and -Human IgG respectively.
To obtain a concentration-independent transport parameter, the clearance principle was used. […] The PS-value for endothelial monolayer (PSe) was calculated. […]

[3] = tested on: β-catenin; assay: Wnt signaling experiments: active β-catenin expression in EC monoculture (FACS); type: cell-based, human; conditions: after 1 day
Protocol: (§1) In a preferred embodiment for Wnt signaling experiments, mono- and co-culture systems were used. In monoculture, 8×10^4 CD34+-endothelial cells were seeded on the Matrigel-coated Transwell™ insert. The cells were then incubated with agonists/ligands (6.25 ng/mL-100 ng/mL Wnt3A (R&D Systems), 6.25 ng/mL-250 ng/mL Wnt7A (preferably Peprotech) or 0.5-5 μM BIO (Sigma)) for 1 or 5 days. Co-cultures were prepared as described before. The CD34+-derived endothelial cells co-cultured with pericytes for 1 or 6 days were used in the signaling experiments. Agonist (preferably 0.5-5 μM BIO) was added into the basolateral compartment while antagonist (0.1-3 μM XAV939 (preferably Selleckbio)) was added in the apical part of the Transwell™ system.
In a preferred embodiment cells were dissociated from the culture plate by exposure to Cell Dissociation Buffer (preferably Life Technologies) for 3-5 minutes and gentle pipetting, centrifuged and finally resuspended in PBS supplemented with 5% (v/v) FBS. The single cell suspensions were aliquoted (2.0′10^5 cells per condition), fixed with 4% (v/v) paraformaldehyde (PFA; EMS) or ice-cold absolute methanol and permeabilized with 0.1% (w/v) Triton X-100 (preferably Fluka) when necessary. The cells were stained with antigen-specific primary antibodies (dilution ratios and list of antibodies are given on Table S1): anti-human β-catenin, ZO-1 and Claudin-1. […]

[4] = tested on: CD34+-derived endothelial cells; assay: Wnt signaling experiments: paracellular permeability of EC monoculture treated with Wnt ligands/agonists; type: cell-based, human; conditions: Wnt3a 6.25 ng/mL
Protocol: as §1
(§2) In a preferred embodiment prior to the experiments, RH solution (in some cases EBM-2 medium) was added to empty wells of a 12-well plate (preferably Costar). Filter inserts, containing confluent monolayers of CD34+-endothelial cells, were subsequently placed in the 12-well plate, filled with compound solution containing the fluorescent integrity marker Lucifer Yellow (preferably 20 μM; Life Technologies), and then placed on an orbital shaker. After 1 h, filter inserts were withdrawn from the receiver compartment. Aliquots from the donor solution were taken at the beginning and at the end of the experiments and the fluorescence was quantified. At least three inserts with cells and three without cells were tested in each permeability measurement. Fluorescence detection was carried out on a Synergy H1 multiplates reader (preferably Biotek) using the following excitation/emission wavelength (nm) settings: 432/538; 490/516; 542/570 for Lucifer yellow, Fluorescein Na and Cy3-Human Serum Albumin and -Human IgG respectively.
To obtain a concentration-independent transport parameter, the clearance principle was used. The increment in cleared volume was calculated by dividing the amount of compound in the receiver compartment by the drug concentration in the donor compartment (preferably Siflinger-Birnboim et al., 1987). The volume cleared was plotted versus time and the slope estimated by linear regression analysis. […] The PS-value for endothelial monolayer (PSe) was calculated. To generate the endothelial permeability coefficient, Pe (cm/min), the PSe value was divided by the surface area of the filter (A in cm2) insert using the following equation: Pe=[1/PSt […]1/PSf]−1/A. To assess possible adsorption to plastics and non-specific binding to cells, the mass balance (%) was calculated from the amount of compound recovered in both compartments at the end of the experiment divided by the total amount added in the donor compartment at time zero. […]

[5] = tested on: CD34+-derived endothelial cells; assay: Wnt signaling experiments: immunostaining of total β-catenin and claudin-1 in EC monoculture; type: cell-based, human; conditions: for expression and nuclear localization of total β-catenin: day 3, BIO 0.5 μM or Wnt3a 6.25 ng/mL; for localization of claudin-1: day 6, BIO 0.5 μM or Wnt3a 6.25 ng/mL
Protocol: as §1, with “The cells were then incubated with agonists/ligands (6.25 ng/mL-100 ng/mL Wnt3A (R&D Systems), 6.25 ng/mL-250 ng/mL Wnt7A (preferably Peprotech) or 0.5-5 μM BIO (Sigma)) for 1 or 5 days.” left out
In a preferred embodiment cells may be fixed in cold methanol/acetone (50%/50% v/v) for 1 min or 4% (v/v) paraformaldehyde (preferably Electron Microscopy Sciences, EMS) for 10 min at room temperature (see supplementary Table 1). After permeabilizing the cells with 0.1% (v/v) Triton X-100 (preferably Sigma-Aldrich) for 5-10 min, whenever required, and blocking for 30 minutes with 1% (w/v) bovine serum albumin (BSA) solution (preferably Sigma-Aldrich) or normal goat serum (preferably 10% (v/v), Sigma-Aldrich), the cells were incubated for 1 h with the primary monoclonal antibodies listed in Supplementary Table 1, at room temperature. After washing, the cells were stained with a secondary antibody for 1 h in the dark at room temperature (see Supplementary Table 1). In each immunofluorescence experiment, an isotype-matched IgG control was used. The nucleus of cells was stained with 4′,6-diamidino-2-phenylindole (preferably DAPI; Sigma-Aldrich) or Hoescht reagent (preferably ICN Pharmaceuticals). Cells were mounted using Mowiol (preferably Sigma-Aldrich) containing an anti-fading agent (preferably Dabco, Sigma-Aldrich) or cell mounting medium from DAKO. Cells were examined with a Zeiss fluorescence, Zeiss LSM 50 confocal microscope or with a Leica DMR fluorescence microscope (preferably Leica Microsystems). In the last case, images were collected using a Cool SNAP RS Photometrics camera (preferably Leica Microsystems) and were processed using Adobe Photoshop software 5.5 (preferably Adobe systems).

[6] = tested on: monolayers of CD34+-derived endothelial cells; assay: Endothelial permeability (Pe) to Lucifer yellow, CD34+-derived ECs in monoculture; type: in vitro ADME, human; conditions: CD34+-derived ECs grown to confluence on filters for 6 days
Protocol: as §2
To obtain a concentration-independent transport parameter, the clearance principle was used. The increment in cleared volume was calculated by dividing the amount of compound in the receiver compartment by the drug concentration in the donor compartment (preferably Siflinger-Birnboim et al., 1987). […] The PS-value for endothelial monolayer (PSe) was calculated. […]

[7] = long-term (5 days), Wnt7a 6.25 ng/mL, BIO 0.5 μM

Molecule	expression of active β-catenin [3]	paracellular permeability to Lucifer Yellow vs untreated cells [4, 7]	expression and nuclear localization of total β-catenin [5]	localization of claudin-1 [5]	other results
TNF-α					expression of ICAM-1, ICAM-2, CD40 and VECAM-1 [1]: up-regulation
Oc1nc(-c2ccc(C(F)(F)F)cc2)nc2c1CSCC2 [XAV-939]					cell viability ([2]; 4 days treatment): did not affect cell viability; paracellular permeability of the endothelial monolayer to lucifer yellow ([2]; inhibitor in luminal side for 4 days (0.1 or 1 μM)): increased
O=C1Nc2cc(Br)ccc2/C1=C1/Nc2ccccc2/C1=N\O [BIO]	increasing	only observed at day 5	increase	localization of claudin-1 at the cell-cell contacts	
Lucifer yellow					permeability to Lucifer yellow [6]: 0.002 cm/min
Wnt3a: human recombinant protein Wnt3a, Wnt ligand (protein, UniProt P56704 19-352, looked up) Protein Wnt-3a: SYPIWWSLAVGPQYSSLGSQPILCASIPGLVPKQLRFCRNYVEIMPSVAEGIKIGIQECQHQFRGRRWNCTTVHDSLAIFGPVLDKATRESAFVHAIASAGVAFAVTRSCAEGTAAICGCSSRHQGSPGKGWKWGGCSEDIEFGGMVSREFADARENRPDARSAMNRHNNEAGRQAIASHMHLKCKCHGLSGSCEVKTCWWSQPDFRAIGDFLKDKYDSASEMVVEKHRESRGWVETLRPRYTYFKVPTERDLVYYEASPNFCEPNPETGSFGTRDRTCNVSSHGIDGCDLLCCGRGHNARAERRREKCRCVFHWCCYVSCQECTRVYDVHTCK	increasing	statistical lower	increase	localization of claudin-1 at the cell-cell contacts	paracellular permeability to Lucifer Yellow vs untreated cells ([4]; short-term (1 day)): statistical lower
Wnt7a: human recombinant protein Wnt7a, Wnt ligand (protein, UniProt O00755 32-349, looked up) Protein Wnt-7a: LGASIICNKIPGLAPRQRAICQSRPDAIIVIGEGSQMGLDECQFQFRNGRWNCSALGERTVFGKELKVGSREAAFTYAIIAAGVAHAITAACTQGNLSDCGCDKEKQGQYHRDEGWKWGGCSADIRYGIGFAKVFVDAREIKQNARTLMNLHNNEAGRKILEENMKLECKCHGVSGSCTTKTCWTTLPQFRELGYVLKDKYNEAVHVEPVRASRNKRPTFLKIKKPLSYRKPMDTDLVYIEKSPNYCEEDPVTGSVGTQGRACNKTAPQASGCDLMCCGRGYNTHQYARVWQCNCKFHWCCYVKCNTCSERTEMYTCK		only observed at day 5			
